Tests used:
Test in all cases: relative viability (nuclei count vs DMSO), 5 days (fraction); higher = more cells survive
[1] = compound: CN(C)CC1=CC(=CC=C1)N=C(C2=CC=CC=C2)C3=C(NC4=C3C=CC(=C4)C(=O)N(C)C)O + CC(=O)c1c(C)c2cnc(Nc3ccc(N4CCNCC4)cn3)nc2n(C2CCCC2)c1=O [Palbociclib] (partner 0.5 µM)
How it was run: (§1)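 Medians of duplicate plates are given as relative viability. That measure is the nuclei count in treated wells divided by the count in vehicle wells. Counts were taken on 4× images of lung cancer cell lines in 1536-well plates, 5 days after pin-tool dosing the day after seeding with one drug alone or a fixed anchor-drug dose plus five library-drug doses (not always all listed) in √10 steps.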

[2] = compound: CN(C)CC1=CC(=CC=C1)N=C(C2=CC=CC=C2)C3=C(NC4=C3C=CC(=C4)C(=O)N(C)C)O + CS(=O)(=O)N1CCN(Cc2cc3nc(-c4cccc5[nH]ncc45)nc(N4CCOCC4)c3s2)CC1 [Pictilisib] (partner 1 µM)
How it was run: as §1

[3] = compound: CN(C)CC1=CC(=CC=C1)N=C(C2=CC=CC=C2)C3=C(NC4=C3C=CC(=C4)C(=O)N(C)C)O + N=C(N)NC(=N)NCCc1ccccc1 [Phenformin] (partner 250 µM)
How it was run: as §1

[4] = compound: CN(C)CC1=CC(=CC=C1)N=C(C2=CC=CC=C2)C3=C(NC4=C3C=CC(=C4)C(=O)N(C)C)O + Nc1ncn([C@H]2C[C@H](O)[C@@H](CO)O2)c(=O)n1 [Decitabine] (partner 2 µM)
How it was run: as §1

Row | Cell Line | relative viability ([1]; first compound 0.08 µM) | relative viability ([1]; first compound 0.253 µM) | relative viability ([1]; first compound 0.8 µM) | relative viability ([1]; first compound 2.53 µM) | relative viability ([1]; first compound 8 µM) | relative viability ([2]; first compound 0.08 µM) | relative viability ([2]; first compound 0.253 µM) | relative viability ([2]; first compound 0.8 µM) | relative viability ([2]; first compound 2.53 µM) | relative viability ([2]; first compound 8 µM) | relative viability ([3]; first compound 0.08 µM) | relative viability ([3]; first compound 0.253 µM) | relative viability ([3]; first compound 0.8 µM) | relative viability ([3]; first compound 2.53 µM) | relative viability ([3]; first compound 8 µM) | relative viability ([4]; first compound 0.08 µM) | relative viability ([4]; first compound 0.253 µM) | relative viability ([4]; first compound 0.8 µM) | relative viability ([4]; first compound 2.53 µM) | relative viability ([4]; first compound 8 µM)
1 | RERF-LC-KJ | 1.08 | 1.05 | 1.01 | 0.992 | 0.982 | 0.518 | 0.595 | 0.57 | 0.625 | 0.515 | 0.434 | 0.424 | 0.412 | 0.409 | 0.398 | 0.746 | 0.644 | 0.801 | 0.671 | 0.713
2 | LC-2-ad | 0.404 | 0.512 | 0.475 | 0.456 | 0.486 | 0.453 | 0.383 | 0.442 | 0.521 | 0.231 | 0.623 | 0.582 | 0.563 | 0.526 | 0.575 | 0.694 | 0.848 | 0.747 | 0.841 | 0.782
3 | NCI-H358 | 0.122 | 0.139 | 0.141 | 0.149 | 0.17 | 0.384 | 0.28 | 0.34 | 0.331 | 0.347 | 0.349 | 0.343 | 0.201 | 0.303 | 0.313 | 0.198 | 0.214 | 0.212 | 0.214 | 0.236
4 | SK-MES-1 | 0.325 | 0.277 | 0.357 | 0.305 | 0.343 | 0.301 | 0.316 | 0.368 | 0.332 | 0.249 | 0.646 | 0.597 | 0.645 | 0.612 | 0.522 | 0.392 | 0.351 | 0.4 | 0.374 | 0.39
5 | NCI-H1734 | 0.39 | 0.353 | 0.346 | 0.31 | 0.31 | 0.479 | 0.461 | 0.408 | 0.402 | 0.471 | 0.354 | 0.408 | 0.385 | 0.376 | 0.368 | 0.526 | 0.491 | 0.455 | 0.564 | 0.493
6 | HOP-62 | 0.372 | 0.445 | 0.441 | 0.43 | 0.4 | 0.817 | 0.7 | 0.587 | 0.943 | 0.497 | 0.7 | 0.64 | 0.677 | 0.601 | 0.629 | 0.21 | 0.282 | 0.195 | 0.206 | 0.262
7 | HCC-15 | 0.706 | 0.724 | 0.74 | 0.711 | 0.752 | 0.739 | 0.768 | 0.877 | 0.819 | 0.774 | 0.48 | 0.462 | 0.503 | 0.419 | 0.431 | 0.707 | 0.636 | 0.784 | 0.63 | 0.617
8 | HCC-44 | 0.966 | 1.01 | 0.973 | 0.923 | 1 | 0.645 | 0.715 | 0.585 | 0.532 | 0.584 | 0.179 | 0.4 | 0.185 | 0.192 | 0.176 | 0.989 | 0.94 | 0.941 | 0.919 | 0.968
9 | NCI-H460 | 0.224 | 0.221 | 0.211 | 0.132 | 0.237 | 0.366 | 0.295 | 0.311 | 0.313 | 0.321 | 0.592 | 0.491 | 0.558 | 0.43 | 0.449 | 0.449 | 0.491 | 0.503 | 0.456 | 0.471
10 | NCI-H3122 | 0.17 | 0.15 | 0.204 | 0.17 | 0.226 | 0.664 | 0.55 | 0.643 | 0.698 | 0.746 | 0.386 | 0.38 | 0.391 | 0.302 | 0.354 | 0.508 | 0.387 | 0.454 | 0.504 | 0.46
11 | NCI-H2009 | 0.165 | 0.236 | 0.258 | 0.198 | 0.192 | 0.792 | 0.766 | 0.795 | 0.803 | 0.541 | 0.508 | 0.484 | 0.49 | 0.416 | 0.372 | 0.364 | 0.427 | 0.432 | 0.343 | 0.379
12 | ABC-1 | 0.775 | 0.795 | 0.588 | 0.545 | 0.569 | 0.613 | 0.811 | 0.599 | 0.643 | 0.64 | 0.205 | 0.277 | 0.231 | 0.207 | 0.243 | 1.38 | 0.939 | 1.2 | 0.99 | 0.904

Source: the supplement of paper PMC10307832
